For this assay, the target named is Nav1.7 (Homo sapiens (Human), UniProt Q15858). Description: Patch voltage clamp electrophysiology, block of inactivated-state Nav1.7 in HEK-293 cells. The assay is classed as cell-based. Particulars: affinity for the inactivated state; HEK-293 cells with β1 subunit; held at -60 mV; read-out: NaV1.7 (IC50 class). The method, then:
Patch voltage clamp electrophysiology allows for the direct measurement and quantification of block of voltage-gated sodium channels (Nav's), and allows the determination of the time- and voltage-dependence of block which has been interpreted as differential binding to the resting, open, and inactivated states of the sodium channel (Hille, B., Journal of General Physiology (1977), 69: 497-515).
The following patch voltage clamp electrophysiology studies were performed on representative compounds of the invention using human embryonic kidney cells (HEK), permanently transfected with an expression vector containing the full-length cDNA coding for the desired human sodium channel α-subunit, grown in culture media containing 10% FBS, 1% PSG, and 0.5 mg/mL G418 at 37° C. with 5% CO2. […] Nav1.7 and Nav1.5 cDNAs (NM_002977 and AC137587; SCN5A, respectively) were stably expressed in HEK-293 cells. The β1 subunit was coexpressed only in the Nav1.7 cell line.
Sodium currents were measured using the patch clamp technique in the whole-cell configuration using either a PatchXpress automated voltage clamp or manually using an Axopatch 200B (Axon Instruments) or Model 2400 (A-M systems) amplifier. […] The pipette was filled with a solution comprised of: 5 mM NaCl, 10 mM CsCl, 120 mM CsF, 0.1 mM CaCl2, 2 mM MgCl2, 10 mM HEPES, 10 mM EGTA; and adjusted to pH 7.2 with CsOH. The external solution had the following composition: 140 mM NaCl, 5 mM KCl, 2 mM CaCl2, 1 mM MgCl2, 10 mM HEPES; and adjusted to pH 7.4 with NaOH. In some studies, the external sodium was reduced by equimolar replacement with choline. Osmolarity in the CsF internal and NaCl external solutions was adjusted to 300 mOsm/kg and 310 mOsm/kg with glucose, respectively. All recordings were performed at ambient temperature in a bath chamber with a volume of 150 μL. Control sodium currents were measured in 0.5% DMSO. Controls and representative compounds of the invention were applied to the recording chamber through a 4-pinch or 8-pinch valve bath perfusion system manufactured by ALA Scientific Instruments.
Currents were recorded at 40 kHz sampling frequency, filtered at […], and stored using a Digidata-1322A analogue/digital interface with the pClamp software (Axon Instruments). Series resistance compensation was applied (60-80%). […] All statistics in this study are given as mean±SD.
The membrane potential was maintained at a voltage where inactivation of the channel is complete (which was −60 mV for both Nav1.7 and Nav1.5). The voltage is then stepped back to a very negative (Vhold=−150 mV) voltage for 20 ms and then a test pulse is applied to quantify the compound block. […] The percent decrease in sodium current following wash-on of compound was taken as the percent block of sodium channels.
The Example numbers provided in Table 1 and Table 2 correspond to the Examples herein.
Chain of Nav1.7 (Q15858 other isoform, or with tags, fused parts or gaps): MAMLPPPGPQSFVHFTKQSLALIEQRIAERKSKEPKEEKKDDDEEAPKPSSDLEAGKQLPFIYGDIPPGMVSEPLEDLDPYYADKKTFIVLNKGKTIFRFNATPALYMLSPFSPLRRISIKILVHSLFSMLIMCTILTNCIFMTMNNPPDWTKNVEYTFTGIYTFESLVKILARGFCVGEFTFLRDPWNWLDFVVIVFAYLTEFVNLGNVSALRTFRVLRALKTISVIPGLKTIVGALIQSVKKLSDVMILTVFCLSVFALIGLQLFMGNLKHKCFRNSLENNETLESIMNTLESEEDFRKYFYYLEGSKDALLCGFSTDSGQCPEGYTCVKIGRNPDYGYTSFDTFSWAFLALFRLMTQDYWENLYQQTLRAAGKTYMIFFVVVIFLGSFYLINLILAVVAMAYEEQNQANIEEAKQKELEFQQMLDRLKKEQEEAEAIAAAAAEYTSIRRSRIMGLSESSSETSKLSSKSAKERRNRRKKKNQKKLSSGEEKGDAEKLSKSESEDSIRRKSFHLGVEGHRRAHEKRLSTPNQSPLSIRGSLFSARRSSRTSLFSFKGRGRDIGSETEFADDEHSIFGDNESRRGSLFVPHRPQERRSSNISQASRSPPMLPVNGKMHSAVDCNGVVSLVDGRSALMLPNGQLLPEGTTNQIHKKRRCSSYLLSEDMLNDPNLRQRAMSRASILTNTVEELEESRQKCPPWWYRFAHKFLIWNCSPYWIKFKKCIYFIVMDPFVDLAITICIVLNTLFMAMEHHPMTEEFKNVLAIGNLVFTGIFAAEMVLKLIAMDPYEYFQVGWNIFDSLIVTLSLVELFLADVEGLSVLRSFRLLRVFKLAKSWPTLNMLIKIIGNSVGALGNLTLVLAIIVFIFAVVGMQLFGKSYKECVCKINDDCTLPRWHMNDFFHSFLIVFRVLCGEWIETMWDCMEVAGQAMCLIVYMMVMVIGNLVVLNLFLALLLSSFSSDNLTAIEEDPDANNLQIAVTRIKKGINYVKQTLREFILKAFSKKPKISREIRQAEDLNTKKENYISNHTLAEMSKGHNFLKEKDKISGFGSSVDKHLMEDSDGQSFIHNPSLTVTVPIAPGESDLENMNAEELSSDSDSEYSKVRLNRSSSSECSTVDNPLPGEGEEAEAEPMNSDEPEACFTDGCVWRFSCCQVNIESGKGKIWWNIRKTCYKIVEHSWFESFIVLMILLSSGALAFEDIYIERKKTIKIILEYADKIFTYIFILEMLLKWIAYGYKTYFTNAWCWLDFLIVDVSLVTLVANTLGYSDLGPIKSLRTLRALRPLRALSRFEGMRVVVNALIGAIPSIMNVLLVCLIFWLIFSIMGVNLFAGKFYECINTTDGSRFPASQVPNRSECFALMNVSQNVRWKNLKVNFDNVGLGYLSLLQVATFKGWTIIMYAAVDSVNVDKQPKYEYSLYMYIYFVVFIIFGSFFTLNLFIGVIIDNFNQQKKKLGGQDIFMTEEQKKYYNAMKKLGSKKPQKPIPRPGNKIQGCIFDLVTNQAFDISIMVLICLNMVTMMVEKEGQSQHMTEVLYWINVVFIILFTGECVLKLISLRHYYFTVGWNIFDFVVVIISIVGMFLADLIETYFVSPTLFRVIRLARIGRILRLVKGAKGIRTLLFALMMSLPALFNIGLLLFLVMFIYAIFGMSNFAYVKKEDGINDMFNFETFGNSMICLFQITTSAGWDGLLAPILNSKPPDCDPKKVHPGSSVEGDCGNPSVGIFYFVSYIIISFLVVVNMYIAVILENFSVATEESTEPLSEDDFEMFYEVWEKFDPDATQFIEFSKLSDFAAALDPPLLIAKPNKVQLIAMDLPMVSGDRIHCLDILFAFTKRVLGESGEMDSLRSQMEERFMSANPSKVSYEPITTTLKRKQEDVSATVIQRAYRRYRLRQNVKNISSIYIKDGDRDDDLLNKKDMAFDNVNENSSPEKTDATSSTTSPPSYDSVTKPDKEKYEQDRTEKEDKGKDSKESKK
Chain of Nav1.7 (Q07699 19-218 partner): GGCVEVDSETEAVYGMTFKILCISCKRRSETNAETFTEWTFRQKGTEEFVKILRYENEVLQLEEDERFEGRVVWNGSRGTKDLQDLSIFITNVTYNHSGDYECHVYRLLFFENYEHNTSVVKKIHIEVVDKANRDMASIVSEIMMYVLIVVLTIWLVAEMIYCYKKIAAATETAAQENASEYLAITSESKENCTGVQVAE
As for `O=S(=O)(Nc1ncns1)c1cc(F)c(Oc2ccc(Cl)cc2-c2cccc3nccn23)cc1F` [Example 30, 4-(4-chloro-2-(imidazo[1,2-a]pyridin-5-yl)phenoxy)-2,5-difluoro-N-(1,2,4-thiadiazol-5-yl)benzenesulfonamide], the IC50 was no more than 100 nM.

Take `O=S(=O)(Nc1ncns1)c1cc(F)c(Oc2ccc(Cl)cc2-c2ccnc3nccn23)cc1F` [Example 31, 4-(4-chloro-2-(imidazo[1,2-a]pyrimidin-5-yl)phenoxy)-2,5-difluoro-N-(1,2,4-thiadiazol-5-yl)benzenesulfonamide]: the 50% inhibitory concentration (IC50) is no more than 100 nM.

As for `O=S(=O)(Nc1ncns1)c1cc(F)c(Oc2ccc(Cl)cc2-c2cnc3n2CCNC3)cc1F` [Example 32, 4-(4-chloro-2-(5,6,7,8-tetrahydroimidazo[1,2-a]pyrazin-3-yl)phenoxy)-2,5-difluoro-N-(1,2,4-thiadiazol-5-yl)benzenesulfonamide], the IC50 lay in the range of 100 to 1000 nM.

On to `O=c1[nH]cc(-c2cc(Cl)ccc2Oc2cc(F)c(S(=O)(=O)Nc3ncns3)cc2F)n2cncc12` [Example 35, 4-(4-chloro-2-(8-oxo-7,8-dihydroimidazo[1,5-a]pyrazin-5-yl)phenoxy)-2,5-difluoro-N-(1,2,4-thiadiazol-5-yl)benzenesulfonamide], for which the IC50 lay within 100 to 1000 nM.

For the compound `O=S(=O)(Nc1ncns1)c1cc(F)c(Oc2ccc(Cl)cc2-c2ncc3cnccn23)cc1F` [Example 36, 4-(4-chloro-2-(imidazo[1,5-a]pyrazin-3-yl)phenoxy)-2,5-difluoro-N-(1,2,4-thiadiazol-5-yl)benzenesulfonamide], the IC50 is 1000 to 10000 nM.

In the case of `Nc1nc2cc(-c3cc(Cl)ccc3Oc3cc(F)c(S(=O)(=O)Nc4ncns4)cc3F)ccc2[nH]1` [Example 38, 4-(2-(2-amino-1H-benzo[d]imidazol-5-yl)-4-chlorophenoxy)-2,5-difluoro-N-(1,2,4-thiadiazol-5-yl)benzenesulfonamide], the IC50 was no more than 100 nM.

As to `Cn1cnc2c(-c3cc(Cl)ccc3Oc3cc(F)c(S(=O)(=O)Nc4ncns4)cc3F)ncnc21` [Example 39, 4-(4-chloro-2-(9-methyl-9H-purin-6-yl)phenoxy)-2,5-difluoro-N-(1,2,4-thiadiazol-5-yl)benzenesulfonamide], the IC50 lay in the range of 1000 to 10000 nM.

As for `O=S(=O)(Nc1ncns1)c1cc(F)c(Oc2ccc(Cl)cc2-n2cnc3cncnc32)cc1F` [Example 40, 4-(4-chloro-2-(9H-purin-9-yl)phenoxy)-2,5-difluoro-N-(1,2,4-thiadiazol-5-yl)-benzenesulfonamide], the IC50 lay in the range of 1000 to 10000 nM.

For the compound `Nc1cnc2ccc(-c3cc(Cl)ccc3Oc3cc(F)c(S(=O)(=O)Nc4ncns4)cc3F)cn12` [Example 42, 4-(2-(3-aminoimidazo[1,2-a]pyridin-6-yl)-4-chlorophenoxy)-2,5-difluoro-N-(1,2,4-thiadiazol-5-yl)benzenesulfonamide], the half-maximal inhibitory concentration (IC50) was no more than 100 nM.

For the compound `Nc1noc2ccc(-c3cc(Cl)ccc3Oc3cc(F)c(S(=O)(=O)Nc4ncns4)cc3F)cc12` [Example 44, 4-(2-(3-aminobenzo[d]isoxazol-5-yl)-4-chlorophenoxy)-2,5-difluoro-N-(1,2,4-thiadiazol-5-yl)benzenesulfonamide], the IC50 is no more than 100 nM.

In the case of `Nc1n[nH]c2ccc(-c3cc(Cl)ccc3Oc3cc(F)c(S(=O)(=O)Nc4ncns4)cc3F)cc12` [Example 45, 4-(2-(3-amino-1H-indazol-5-yl)-4-chlorophenoxy)-2,5-difluoro-N-(1,2,4-thiadiazol-5-yl)benzenesulfonamide], the IC50 was no more than 100 nM.

Regarding `NC(=O)c1cnc2ccc(-c3cc(Cl)ccc3Oc3cc(F)c(S(=O)(=O)Nc4ncns4)cc3F)cn12` [Example 46, 6-(2-(4-(N-(1,2,4-thiadiazol-5-yl)sulfamoyl)-2,5-difluorophenoxy)-5-chlorophenyl)imidazo[1,2-a]pyridine-3-carboxamide], the IC50 is no more than 100 nM.

As to `O=c1[nH]c2ccc(-c3cc(Cl)ccc3Oc3cc(F)c(S(=O)(=O)Nc4ncns4)cc3F)cc2[nH]1` [Example 48, 4-(4-chloro-2-(2-oxo-2,3-dihydro-1H-benzo[d]imidazol-5-yl)phenoxy)-2,5-difluoro-N-(1,2,4-thiadiazol-5-yl)benzenesulfonamide], the IC50 was no more than 100 nM.

Regarding `Nc1noc2ccc(-c3cc(Cl)ccc3Oc3cc(F)c(S(=O)(=O)Nc4cscn4)cc3F)cc12` [Example 49, 4-(2-(3-aminobenzo[d]isoxazol-5-yl)-4-chlorophenoxy)-2,5-difluoro-N-(thiazol-4-yl)benzenesulfonamide], the IC50 was no more than 100 nM.

Consider `O=S(=O)(Nc1ncns1)c1cc(F)c(Oc2ccc(Cl)cc2-c2ccc3ocnc3c2)cc1F` [Example 51, 4-(2-(benzo[d]oxazol-5-yl)-4-chlorophenoxy)-2,5-difluoro-N-(1,2,4-thiadiazol-5-yl)benzenesulfonamide], for which the IC50 is no more than 100 nM.

Take `O=c1[nH]c2cc(-c3cc(Cl)ccc3Oc3cc(F)c(S(=O)(=O)Nc4ncns4)cc3F)ccc2o1` [Example 52, 4-(4-chloro-2-(2-oxo-2,3-dihydrobenzo[d]oxazol-5-yl)phenoxy)-2,5-difluoro-N-(1,2,4-thiadiazol-5-yl)benzenesulfonamide]: the IC50 is no more than 100 nM.

On to `O=c1[nH]c2ccc(-c3cc(Cl)ccc3Oc3cc(F)c(S(=O)(=O)Nc4ncns4)cc3F)cc2o1` [Example 53, 4-(4-chloro-2-(2-oxo-2,3-dihydrobenzo[d]oxazol-6-yl)phenoxy)-2,5-difluoro-N-(1,2,4-thiadiazol-5-yl)benzenesulfonamide], for which the 50% inhibitory concentration (IC50) is no more than 100 nM.

In the case of `O=S(=O)(Nc1ncns1)c1cc(F)c(Oc2ccc(Cl)cc2-c2ccc3[nH]c(C(F)(F)F)nc3c2)cc1F` [Example 54, 4-(4-chloro-2-(2-(trifluoromethyl)-1H-benzo[d]imidazol-5-yl)phenoxy)-2,5-difluoro-N-(1,2,4-thiadiazol-5-yl)benzenesulfonamide], the IC50 is no more than 100 nM.

For `O=C1Cc2ccc(-c3cc(Cl)ccc3Oc3cc(F)c(S(=O)(=O)Nc4ncns4)cc3F)cc2N1` [Example 55, 4-(4-chloro-2-(2-oxoindolin-6-yl)phenoxy)-2,5-difluoro-N-(1,2,4-thiadiazol-5-yl)benzenesulfonamide], the IC50 was no more than 100 nM.

For `Nc1nc2ccc(-c3cc(Cl)ccc3Oc3cc(F)c(S(=O)(=O)Nc4ncns4)cc3F)cc2o1` [Example 57, 4-(2-(2-aminobenzo[d]oxazol-6-yl)-4-chlorophenoxy)-2,5-difluoro-N-(1,2,4-thiadiazol-5-yl)benzenesulfonamide], the IC50 was no more than 100 nM.

In the case of `Nc1noc2ccc(-c3ccccc3Oc3cc(F)c(S(=O)(=O)Nc4ncns4)cc3F)cc12` [Example 58, 4-(2-(3-aminobenzo[d]isoxazol-5-yl)phenoxy)-2,5-difluoro-N-(1,2,4-thiadiazol-5-yl)benzenesulfonamide], the IC50 is no more than 100 nM.

`O=S(=O)(Nc1ncns1)c1cc(F)c(Oc2ccc(Cl)cc2-c2ccc3nccnc3c2)cc1F` [Example 59, 4-(4-chloro-2-(quinoxalin-6-yl)phenoxy)-2,5-difluoro-N-(1,2,4-thiadiazol-5-yl)benzenesulfonamide]: the IC50 is no more than 100 nM.

Consider `Nc1noc2ccc(-c3cc(Cl)ccc3Oc3cc(F)c(S(=O)(=O)Nc4ncccn4)cc3F)cc12` [Example 63, 4-(2-(3-aminobenzo[d]isoxazol-5-yl)-4-chlorophenoxy)-2,5-difluoro-N-(pyrimidin-2-yl)benzenesulfonamide], for which the IC50 is no more than 100 nM.

Turning to `Nc1noc2ccc(-c3cc(Cl)ccc3Oc3cc(F)c(S(=O)(=O)Nc4ncns4)c(F)c3)cc12` [Example 64, 4-(2-(3-aminobenzo[d]isoxazol-5-yl)-4-chlorophenoxy)-2,6-difluoro-N-(1,2,4-thiadiazol-5-yl)benzenesulfonamide], the IC50 was no more than 100 nM.

`Nc1noc2ccc(-c3cc(Cl)ccc3Oc3ccc(S(=O)(=O)Nc4ncns4)c(F)c3F)cc12` [Example 65, 4-(2-(3-aminobenzo[d]isoxazol-5-yl)-4-chlorophenoxy)-2,3-difluoro-N-(1,2,4-thiadiazol-5-yl)benzenesulfonamide]: the IC50 is no more than 100 nM.

As to `CNc1noc2ccc(-c3cc(Cl)ccc3Oc3cc(F)c(S(=O)(=O)Nc4ncns4)cc3F)cc12` [Example 69, 4-(4-chloro-2-(3-(methylamino)benzo[d]isoxazol-5-yl)phenoxy)-2,5-difluoro-N-(1,2,4-thiadiazol-5-yl)benzenesulfonamide], the IC50 was no more than 100 nM.

As a reminder, the IC50 is the point on the concentration scale where inhibition reaches its midpoint.

(Values after patent publication US9481677B2, “Biaryl ether sulfonamides and their use as therapeutic agents” (XENON PHARMACEUTICALS INC., priority 2011, dated 2016).)
